In ChEMBL document CHEMBL1151658, “Degradation of Lycorine by Pseudomonas Species Strain ITM 311” (1985):
Activity calls are given as the source filed them. No cut-off for these calls is given here.

Experiments:
Rhodococcus fascians [1] = assay: Antimicrobial activity against Corynebacterium fascians NCPPB 2551 at 0.01 molarity/paper disk; type: functional, Rhodococcoides fascians
Rhodococcus fascians [2] = assay: Antimicrobial activity against Corynebacterium fascians NCPPB 2551 at 0.0005 molarity/paper disk; type: functional, Rhodococcoides fascians
Rhodococcus fascians [3] = assay: Antimicrobial activity against Corynebacterium fascians NCPPB 2551 at 0.0001 molarity/paper disk; type: functional, Rhodococcoides fascians
Rhodococcus fascians [4] = assay: Antimicrobial activity against Corynebacterium fascians NCPPB 2551 at 0.001 molarity/paper disk; type: functional, Rhodococcoides fascians
Pseudomonas savastanoi = assay: Antimicrobial activity against Pseudomonas savastanoi ITM 519 after 48 to 72 hrs by paper disk method; type: functional, organism-based
Pseudomonas cichorii = assay: Antimicrobial activity against Pseudomonas cichorii NCPPB 2379 after 48 to 72 hrs by paper disk method; type: functional, organism-based
Pseudomonas syringae [5] = assay: Antimicrobial activity against Pseudomonas syringae pv. tomato NCPPB 2563 after 48 to 72 hrs by paper disk method; type: functional, organism-based
Pseudomonas syringae [6] = assay: Antimicrobial activity against Pseudomonas syringae pv. tabaci NCPPB 2730 after 48 to 72 hrs by paper disk method; type: functional, organism-based; conditions: Pseudomonas amygdali pv. tabaci
Pseudomonas syringae [7] = assay: Antimicrobial activity against Pseudomonas syringae pv. maculicola NCPPB 1777 after 48 to 72 hrs by paper disk method; type: functional, organism-based
Pseudomonas = assay: Antimicrobial activity against Pseudomonas ITM 311 after 48 to 72 hrs by paper disk method; type: functional, organism-based
[8] = tested on: Pectobacterium carotovorum; assay: Antimicrobial activity against Erwinia carotovora subsp. carotovora NCPPB ITM 180 after 48 to 72 hrs by paper disk method; type: functional, organism-based
[9] = tested on: Pseudomonas coronafaciens; assay: Antimicrobial activity against Pseudomonas coronafaciens NCPPB 2481 after 48 to 72 hrs by paper disk method; type: functional, organism-based
[10] = tested on: Curtobacterium flaccumfaciens; assay: Antimicrobial activity against Corynebacterium flaccumfaciens NCPPB 559 after 48 to 72 hrs by paper disk method; type: functional, organism-based
[11] = tested on: Agrobacterium tumefaciens; assay: Antimicrobial activity against Agrobacterium tumefaciens ITM 71 after 48 to 72 hrs by paper disk method; type: functional, organism-based
Pseudomonas syringae [12] = assay: Antimicrobial activity against Pseudomonas syringae pv. syringae NCPPB ITM24 after 48 to 72 hrs by paper disk method; type: functional, organism-based
Priestia megaterium = assay: Antimicrobial activity against Bacillus megaterium ITM 80 after 48 to 72 hrs by paper disk method; type: functional, organism-based
[13] = tested on: Xanthomonas euvesicatoria; assay: Antimicrobial activity against Xanthomonas campestris pv. vesicatoria NCPPB 1616 after 48 to 72 hrs by paper disk method; type: functional, organism-based

Structure (SMILES) | inhibition zone (IZ) (Rhodococcus fascians [1]) | inhibition zone (IZ) (Rhodococcus fascians [2]) | inhibition zone (IZ) (Rhodococcus fascians [3]) | inhibition zone (IZ) (Rhodococcus fascians [4]) | Activity (Pseudomonas savastanoi) | Activity (Pseudomonas cichorii) | Activity (Pseudomonas syringae [5]) | Activity (Pseudomonas syringae [6]) | Activity (Pseudomonas syringae [7]) | Activity (Pseudomonas) | Activity [8] | Activity [9] | Activity [10] | Activity [11] | Activity (Pseudomonas syringae [12]) | Activity (Priestia megaterium) | Activity [13]
Oc1ccc2c3c1c1cc4c(cc1c[n+]3CC2)OCO4.[Cl-] | 10 mm | 0 mm | 0 mm | 7 mm |  |  |  |  |  |  |  |  |  |  |  |  | 
O=c1c2cc3c(cc2c2cccc4c2n1CC4)OCO3 | 25 mm | 9 mm | 0 mm | 12 mm |  |  |  |  |  |  |  |  |  |  |  |  | 
Oc1cc2c3c(c1)c1cc4c(cc1c[n+]3CC2)OCO4.[Cl-] | 0 mm | 0 mm | 0 mm | 0 mm |  |  |  |  |  |  |  |  |  |  |  |  | 
c1cc2c3c(c1)-c1cc4c(cc1CN3CC2)OCO4 [ANHYDROLYCORINE] | 25 mm | 15 mm | 0 mm | 25 mm |  |  |  |  |  |  |  |  |  |  |  |  | 
[Cl-].c1cc2c3c(c1)c1cc4c(cc1c[n+]3CC2)OCO4 [ANHYDROLYCORINIUM CHLORIDE] | 30 mm | 16 mm | 10 mm | 24 mm | Active | Active | Active | Active | Active | inactive | Active | Active | Active | Active | Active | Active | Active
O[C@H]1[C@H]2c3cc4c(cc3CN3CCC(=C[C@@H]1O)[C@H]23)OCO4 [LYCORINE] | 0 mm | 0 mm | 0 mm | 0 mm |  |  |  |  |  |  |  |  |  |  |  |  | 
O=C1N[C@@H]2C(=C[C@H](O)[C@@H](O)[C@H]2O)c2cc3c(c(O)c21)OCO3 [NARCICLASINE] | 0 mm | 0 mm | 0 mm | 0 mm |  |  |  |  |  |  |  |  |  |  |  |  | 
[O-]c1cc2c3c(c1)c1cc4c(cc1c[n+]3CC2)OCO4 [UNGEREMINE] | 15 mm | 0 mm | 0 mm | 14 mm | Active | Active | Active | Active | Active | inactive | Active | Active | Active | Active | Active | Active | Active
